How the values were obtained:
[1] = target: Beta-2 adrenergic receptor (Homo sapiens, UniProt P07550)
Description: Displacement of [3H]CGP12177 from human beta2 adrenoceptor

[2] = target: Beta-1 adrenergic receptor (Homo sapiens, UniProt P08588)
Description: Displacement of [3H]CGP12177 from human beta-1 adrenoceptor

[3] = Agonist activity at beta 1 adrenoceptor in electrically-stimulated guinea pig left atrium at 1 uM; type: functional, Cavia porcellus, Cardiac atrium

Chain of Beta-2 adrenergic receptor (P07550 whole entry): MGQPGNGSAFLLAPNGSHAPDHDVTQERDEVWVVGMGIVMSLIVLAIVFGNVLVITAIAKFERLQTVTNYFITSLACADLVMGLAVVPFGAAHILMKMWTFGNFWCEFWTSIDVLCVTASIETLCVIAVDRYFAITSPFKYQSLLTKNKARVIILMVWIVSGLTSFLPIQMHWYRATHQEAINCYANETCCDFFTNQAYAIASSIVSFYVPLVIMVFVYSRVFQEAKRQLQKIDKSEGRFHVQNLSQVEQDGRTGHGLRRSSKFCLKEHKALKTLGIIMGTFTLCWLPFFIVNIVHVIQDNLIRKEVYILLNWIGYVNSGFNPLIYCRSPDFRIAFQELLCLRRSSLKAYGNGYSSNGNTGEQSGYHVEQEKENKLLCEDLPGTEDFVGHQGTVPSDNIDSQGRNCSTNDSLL
Chain of Beta-1 adrenergic receptor (P08588 whole entry): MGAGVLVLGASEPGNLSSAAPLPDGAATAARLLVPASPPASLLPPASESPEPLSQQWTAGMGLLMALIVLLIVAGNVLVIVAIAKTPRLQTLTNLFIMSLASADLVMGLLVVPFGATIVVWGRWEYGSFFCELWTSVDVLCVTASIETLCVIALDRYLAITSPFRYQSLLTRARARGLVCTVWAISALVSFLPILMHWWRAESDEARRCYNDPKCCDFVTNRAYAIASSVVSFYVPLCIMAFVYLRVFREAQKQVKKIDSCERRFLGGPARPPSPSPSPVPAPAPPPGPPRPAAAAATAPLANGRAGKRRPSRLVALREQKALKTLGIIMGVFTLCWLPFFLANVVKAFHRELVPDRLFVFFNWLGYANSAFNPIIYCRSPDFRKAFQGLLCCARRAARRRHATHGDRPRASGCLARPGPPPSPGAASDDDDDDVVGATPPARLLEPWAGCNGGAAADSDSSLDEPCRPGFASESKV

Row | SMILES | Ki [1] | Ki [2] | Activity [3]
1 | CCC(CC)CNC[C@H](O)c1ccc(O)c2[nH]c(=O)sc12 | 24.7 nM | 169 nM | –
2 | C[C@@H](NC[C@H](O)c1ccc(O)c2[nH]c(=O)sc12)C1CCCCC1 | 1 nM | 1.5 nM | 69%
3 | C[C@H](NC[C@H](O)c1ccc(O)c2[nH]c(=O)sc12)C1CCCCC1 | 25.1 nM | 39.3 nM | –
4 | CC(C)(C)CC(C)(C)NC[C@H](O)c1ccc(O)c2[nH]c(=O)sc12 | 1.9 nM | 9.2 nM | –
5 | O=c1[nH]c2c(O)ccc([C@@H](O)CNCC34CC5CC(CC(C5)C3)C4)c2s1 | 26.5 nM | 35.4 nM | –
6 | O=c1[nH]c2c(O)ccc([C@@H](O)CNCCc3ccccc3)c2s1 | 1.8 nM | 3.8 nM | –
7 | Cc1onc(-c2ccccc2)c1CNC[C@H](O)c1ccc(O)c2[nH]c(=O)sc12 | 19.8 nM | 902 nM | 19%
8 | O=c1[nH]c2c(O)ccc([C@@H](O)CNCCCc3ccccc3)c2s1 | 1.2 nM | 2 nM | –
9 | CC(C)(Cc1ccccc1)NC[C@H](O)c1ccc(O)c2[nH]c(=O)sc12 | 0.4 nM | 1.8 nM | –
10 | O=c1[nH]c2c(O)ccc([C@@H](O)CN[C@@H]3CCCc4ccccc43)c2s1 | 9.4 nM | 112 nM | –
11 | O=c1[nH]c2c(O)ccc([C@@H](O)CN[C@H]3CCCc4ccccc43)c2s1 | 30.2 nM | 58.2 nM | –
12 | O=c1[nH]c2c(O)ccc([C@@H](O)CNCCCCc3ccccc3)c2s1 | 1.8 nM | 15 nM | –
13 | C[C@@H](NC[C@H](O)c1ccc(O)c2[nH]c(=O)sc12)c1ccc2ccccc2c1 | 2.7 nM | 1.4 nM | –
14 | C[C@H](NC[C@H](O)c1ccc(O)c2[nH]c(=O)sc12)c1ccc2ccccc2c1 | 48.9 nM | 33.7 nM | –
15 | O=c1[nH]c2c(O)ccc([C@@H](O)CNC3CCCCCC3)c2s1 | 11.8 nM | 78.8 nM | –
16 | O=c1[nH]c2c(O)ccc([C@@H](O)CN[C@@H]3CCCC[C@H]3OCc3ccccc3)c2s1 | 7.2 nM | 40.4 nM | 13%
17 | O=c1[nH]c2c(O)ccc([C@@H](O)CN[C@H]3CCCC[C@@H]3OCc3ccccc3)c2s1 | 362 nM | 1060 nM | –
18 | CC1(C)[C@@H]2CC[C@]1(C)[C@@H](NC[C@H](O)c1ccc(O)c3[nH]c(=O)sc13)C2 | 40.4 nM | 1510 nM | –
19 | CC1(C)[C@@H]2CC[C@@]1(C)[C@@H](NC[C@H](O)c1ccc(O)c3[nH]c(=O)sc13)C2 | 3.8 nM | 450 nM | –
20 | O=c1[nH]c2c(O)ccc([C@@H](O)CNC3CCCCC3C3CCCCC3)c2s1 (some centres not stated) | 151 nM | 662 nM | –
21 | O=c1[nH]c2c(O)ccc([C@@H](O)CNC3CCN(CCN4CCCCCC4)CC3)c2s1 | 6.3 nM | 187 nM | –
22 | O=c1[nH]c2c(O)ccc([C@@H](O)CNCCOc3ccccc3)c2s1 | 4.4 nM | 17.8 nM | –
23 | CN(CCCNC[C@H](O)c1ccc(O)c2[nH]c(=O)sc12)c1ccccc1 | 0.3 nM | 8.4 nM | –
24 | O=C(NC1CCCCC1)[C@H](Cc1ccccc1)NC[C@H](O)c1ccc(O)c2[nH]c(=O)sc12 | > 1000 nM | > 1000 nM | –
25 | O=c1[nH]c2c(O)ccc([C@@H](O)CNCCSc3ccc(Cl)cc3)c2s1 | 3 nM | 1.7 nM | –
26 | CCCCN(CCCC)CCNC[C@H](O)c1ccc(O)c2[nH]c(=O)sc12 | 18.3 nM | 31.3 nM | –
27 | CNCC(O)c1ccc(O)c2nc(O)sc12 (configuration not stated) | 5 nM | 60.6 nM | –

Reference: ChEMBL document CHEMBL1221245, “A physical properties based approach for the exploration of a 4-hydroxybenzothiazolone series of beta2-adrenoceptor agonists as inhaled long-acting bronchodilators” (Bioorg Med Chem Lett, 2010)
